# In ChEMBL document CHEMBL1138045 (J Med Chem, 2006):
# Target: not listed separately
# Assay: Inhibition of MAPKAPK
# Set-up: species or system Homo sapiens
# Conditions: not given
row,Ki,SMILES
1,> 8400 nM,CCOc1nc(C(=O)NCc2ccc(S(C)(=O)=O)cc2)cc(N)c1Cl

# System: not listed separately
# Assay: Half life in rat microsomes
# Type: ADME, Microsome
# Conditions: liver microsomes
row,half-life,SMILES
1,> 1 h,CCOc1nc(C(=O)NCc2ccc(S(C)(=O)=O)cc2)cc(N)c1Cl
2,> 1 h,CCOc1nc(C(=O)NCc2ccccc2S(N)(=O)=O)cc(N)c1C#N
3,> 1 h,CCOc1nc(C(=O)NCc2ccc(S(C)(=O)=O)cc2)cc(N)c1C#N

# System: not listed separately
# Assay: Oral bioavailability in rat at 5 mg/kg, po
# Type: ADME, organism-based
# Conditions: in vivo
row,bioavailability,SMILES
1,32.7%,CCOc1nc(C(=O)NCc2cccnc2)cc(N)c1C#N
2,124%,CCOc1nc(C(=O)NCc2ccc(S(C)(=O)=O)cc2)cc(N)c1Cl
3,54.7%,CCOc1nc(C(=O)NCc2ccccc2S(N)(=O)=O)cc(N)c1C#N
4,38.8%,CCOc1nc(C(=O)NCc2ccc(S(C)(=O)=O)cc2)cc(N)c1C#N

# Target: T1, Serine/threonine-protein kinase Sgk1 (Homo sapiens, UniProt O00141)
# T1 sequence (O00141 whole entry): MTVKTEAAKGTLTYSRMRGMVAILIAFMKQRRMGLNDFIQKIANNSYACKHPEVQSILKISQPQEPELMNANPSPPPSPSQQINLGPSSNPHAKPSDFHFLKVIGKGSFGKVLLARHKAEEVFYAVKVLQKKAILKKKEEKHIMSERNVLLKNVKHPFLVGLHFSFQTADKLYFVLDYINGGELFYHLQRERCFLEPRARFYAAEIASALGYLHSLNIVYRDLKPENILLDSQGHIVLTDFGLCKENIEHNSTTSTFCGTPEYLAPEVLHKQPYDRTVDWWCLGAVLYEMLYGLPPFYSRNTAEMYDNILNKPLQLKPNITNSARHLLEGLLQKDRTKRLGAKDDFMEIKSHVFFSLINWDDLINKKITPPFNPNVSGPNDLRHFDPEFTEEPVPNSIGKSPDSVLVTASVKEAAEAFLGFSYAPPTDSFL
# Assay: Inhibition of SGk
# Conditions: not given
row,Ki,SMILES
1,> 9400 nM,CCOc1nc(C(=O)NCc2ccc(S(C)(=O)=O)cc2)cc(N)c1Cl

# Target: Activated CDC42 kinase 1 (Homo sapiens, UniProt Q07912)
# Sequence (Q07912 whole entry): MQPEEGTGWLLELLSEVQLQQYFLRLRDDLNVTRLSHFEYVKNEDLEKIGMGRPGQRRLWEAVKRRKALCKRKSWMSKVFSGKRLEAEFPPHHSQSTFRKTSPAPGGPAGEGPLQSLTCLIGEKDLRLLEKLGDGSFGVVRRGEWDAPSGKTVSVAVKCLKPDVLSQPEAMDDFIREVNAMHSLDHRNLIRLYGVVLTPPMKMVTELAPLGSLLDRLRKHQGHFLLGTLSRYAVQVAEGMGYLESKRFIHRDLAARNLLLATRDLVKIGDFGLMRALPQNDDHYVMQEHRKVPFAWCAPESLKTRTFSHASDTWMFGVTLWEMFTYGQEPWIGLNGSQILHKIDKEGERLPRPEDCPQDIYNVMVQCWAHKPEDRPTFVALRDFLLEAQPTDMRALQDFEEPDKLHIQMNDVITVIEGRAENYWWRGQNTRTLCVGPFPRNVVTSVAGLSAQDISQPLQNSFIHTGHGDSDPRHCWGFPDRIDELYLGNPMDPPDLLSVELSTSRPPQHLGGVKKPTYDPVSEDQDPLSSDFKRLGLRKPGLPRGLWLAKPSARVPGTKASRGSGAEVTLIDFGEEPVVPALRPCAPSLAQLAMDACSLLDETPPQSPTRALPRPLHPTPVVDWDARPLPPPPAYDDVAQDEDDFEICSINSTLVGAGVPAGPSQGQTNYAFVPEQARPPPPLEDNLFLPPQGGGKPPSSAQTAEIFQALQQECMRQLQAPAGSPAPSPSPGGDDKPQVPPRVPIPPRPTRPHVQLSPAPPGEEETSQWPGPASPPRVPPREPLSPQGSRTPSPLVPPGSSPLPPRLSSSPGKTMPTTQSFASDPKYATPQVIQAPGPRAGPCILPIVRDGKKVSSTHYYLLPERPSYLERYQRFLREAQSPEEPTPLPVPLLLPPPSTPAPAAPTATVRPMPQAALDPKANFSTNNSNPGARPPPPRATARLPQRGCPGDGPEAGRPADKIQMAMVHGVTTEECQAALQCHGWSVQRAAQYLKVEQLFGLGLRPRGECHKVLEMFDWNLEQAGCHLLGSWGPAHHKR
# Assay: Inhibition of CDC42
# Conditions: not given
row,Ki,SMILES
1,> 9500 nM,CCOc1nc(C(=O)NCc2ccc(S(C)(=O)=O)cc2)cc(N)c1Cl

# Target: T2, Calcium/calmodulin-dependent protein kinase type IV (Homo sapiens, UniProt Q16566)
# T2 sequence (Q16566 whole entry): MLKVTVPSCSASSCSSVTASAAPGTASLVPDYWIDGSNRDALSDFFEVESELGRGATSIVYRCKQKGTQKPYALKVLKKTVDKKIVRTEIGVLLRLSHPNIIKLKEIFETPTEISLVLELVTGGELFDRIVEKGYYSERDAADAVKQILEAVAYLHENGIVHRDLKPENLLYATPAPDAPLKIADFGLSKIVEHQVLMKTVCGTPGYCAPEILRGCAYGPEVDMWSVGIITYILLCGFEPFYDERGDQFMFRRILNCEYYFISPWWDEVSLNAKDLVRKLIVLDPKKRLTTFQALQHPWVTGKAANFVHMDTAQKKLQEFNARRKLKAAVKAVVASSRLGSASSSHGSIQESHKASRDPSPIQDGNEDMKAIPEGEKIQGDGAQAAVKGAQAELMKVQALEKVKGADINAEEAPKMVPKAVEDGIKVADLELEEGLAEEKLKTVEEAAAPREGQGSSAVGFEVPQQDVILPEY
# Assay: Inhibition of CaMK4
# Conditions: not given
row,Ki,SMILES
1,> 8500 nM,CCOc1nc(C(=O)NCc2ccc(S(C)(=O)=O)cc2)cc(N)c1Cl

# System: not listed separately
# Assay: AUC in rat at 5 mg/kg, po
# Type: ADME, organism-based
# Set-up: dose 5 mg/kg, route oral
# Conditions: plasma
row,AUC,SMILES
1,3800 ng·h/mL,CCOc1nc(C(=O)NCc2cccnc2)cc(N)c1C#N
2,15400 ng·h/mL,CCOc1nc(C(=O)NCc2ccc(S(C)(=O)=O)cc2)cc(N)c1Cl
3,4000 ng·h/mL,CCOc1nc(C(=O)NCc2ccccc2S(N)(=O)=O)cc(N)c1C#N
4,6320 ng·h/mL,CCOc1nc(C(=O)NCc2ccc(S(C)(=O)=O)cc2)cc(N)c1C#N

# System: not listed separately
# Assay: Half life in mouse microsomes
# Type: ADME, Microsome
# Conditions: not given
row,half-life,SMILES
1,0.0833 h,CCOc1nc(C(=O)NCc2cccnc2)cc(N)c1C#N
2,> 1 h,CCOc1nc(C(=O)NCc2ccc(S(C)(=O)=O)cc2)cc(N)c1C#N

# Target: c-Jun N-terminal kinase, JNK (Homo sapiens, UniProt P45983+P53779+P45984)
# Assay: Inhibition of cJun phosphorylation in HepG2 cells
# Type: functional, cell-based
# Conditions: not given
row,IC50,SMILES
1,2500 nM,CCOc1nc(C(=O)NCc2cc(OC)ccc2OC)ccc1C#N
2,1100 nM,CCOc1nc(C(=O)NCc2ccccc2)cc(N)c1C#N
3,> 10000 nM,CCOc1nc(C(=O)NCc2ccc(-c3ccc(C(=O)O)cc3)nc2)cc(N)c1C#N
4,640 nM,CCOc1nc(C(=O)NCc2cc(OC)ccc2OC)cc(N)c1C#N
5,5800 nM,CCOc1nc(C(=O)NCc2ccc(S(C)(=O)=O)cc2)ccc1C#N
6,> 10000 nM,CCOc1nc(C(=O)N(C)Cc2ccc(S(C)(=O)=O)cc2)cc(N)c1C#N
7,410 nM,CC(C)Oc1nc(C(=O)NCc2ccc(S(C)(=O)=O)cc2)cc(N)c1Cl

# Target: Mitogen-activated protein kinase 8 (Homo sapiens, UniProt P45983)
# Sequence (P45983 whole entry): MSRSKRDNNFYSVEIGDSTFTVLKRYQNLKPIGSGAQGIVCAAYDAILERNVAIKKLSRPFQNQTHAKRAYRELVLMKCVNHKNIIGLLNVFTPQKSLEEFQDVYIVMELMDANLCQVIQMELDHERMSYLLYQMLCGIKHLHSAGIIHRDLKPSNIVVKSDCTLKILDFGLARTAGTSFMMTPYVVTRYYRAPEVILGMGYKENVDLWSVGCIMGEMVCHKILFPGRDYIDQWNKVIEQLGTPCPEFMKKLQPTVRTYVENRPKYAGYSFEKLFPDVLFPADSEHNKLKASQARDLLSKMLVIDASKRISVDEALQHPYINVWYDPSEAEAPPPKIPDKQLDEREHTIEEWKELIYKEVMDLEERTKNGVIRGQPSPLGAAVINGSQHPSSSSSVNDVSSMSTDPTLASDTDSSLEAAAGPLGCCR
# Assay: Inhibition of JNK1
# Conditions: not given
SMILES,IC50,Ki
CCOc1nc(NCc2cc(OC)ccc2OC)cc(N)c1C#N,> 10000 nM,–
CS(=O)(=O)c1ccc(CNC(=O)c2cc(N)c(C#N)c(Cl)n2)cc1,1500 nM,–
CCOc1nc(C(=O)NC)cc(N)c1C#N,1200 nM,400 nM
CCOc1nc(C(=O)N(C)Cc2ccc(S(C)(=O)=O)cc2)cc(N)c1C#N,6400 nM,–

# Now from value to compound:
IC50,Ki,SMILES
390 nM,–,CCOc1nc(C(=O)NCc2ccc(S(C)(=O)=O)cc2)ccc1C#N
270 nM,–,CCOc1nc(C(=O)NCc2ccccc2)cc(N)c1C#N
230 nM,–,CCOc1nc(C(=O)NCc2cc(OC)ccc2OC)ccc1C#N
75 nM,–,CC(C)Oc1nc(C(=O)NCc2ccc(S(C)(=O)=O)cc2)cc(N)c1Cl
71 nM,–,CCOc1nc(C(=O)NCc2cc(OC)ccc2OC)cc(N)c1C#N
12 nM,–,CCOc1nc(C(=O)NCc2ccccc2S(N)(=O)=O)cc(N)c1C#N
4 nM,–,CCOc1nc(C(=O)NCc2ccc(-c3ccc(C(=O)O)cc3)nc2)cc(N)c1C#N

# Target: Voltage-gated inwardly rectifying potassium channel KCNH2 (Homo sapiens, UniProt Q12809)
# Sequence (Q12809 whole entry): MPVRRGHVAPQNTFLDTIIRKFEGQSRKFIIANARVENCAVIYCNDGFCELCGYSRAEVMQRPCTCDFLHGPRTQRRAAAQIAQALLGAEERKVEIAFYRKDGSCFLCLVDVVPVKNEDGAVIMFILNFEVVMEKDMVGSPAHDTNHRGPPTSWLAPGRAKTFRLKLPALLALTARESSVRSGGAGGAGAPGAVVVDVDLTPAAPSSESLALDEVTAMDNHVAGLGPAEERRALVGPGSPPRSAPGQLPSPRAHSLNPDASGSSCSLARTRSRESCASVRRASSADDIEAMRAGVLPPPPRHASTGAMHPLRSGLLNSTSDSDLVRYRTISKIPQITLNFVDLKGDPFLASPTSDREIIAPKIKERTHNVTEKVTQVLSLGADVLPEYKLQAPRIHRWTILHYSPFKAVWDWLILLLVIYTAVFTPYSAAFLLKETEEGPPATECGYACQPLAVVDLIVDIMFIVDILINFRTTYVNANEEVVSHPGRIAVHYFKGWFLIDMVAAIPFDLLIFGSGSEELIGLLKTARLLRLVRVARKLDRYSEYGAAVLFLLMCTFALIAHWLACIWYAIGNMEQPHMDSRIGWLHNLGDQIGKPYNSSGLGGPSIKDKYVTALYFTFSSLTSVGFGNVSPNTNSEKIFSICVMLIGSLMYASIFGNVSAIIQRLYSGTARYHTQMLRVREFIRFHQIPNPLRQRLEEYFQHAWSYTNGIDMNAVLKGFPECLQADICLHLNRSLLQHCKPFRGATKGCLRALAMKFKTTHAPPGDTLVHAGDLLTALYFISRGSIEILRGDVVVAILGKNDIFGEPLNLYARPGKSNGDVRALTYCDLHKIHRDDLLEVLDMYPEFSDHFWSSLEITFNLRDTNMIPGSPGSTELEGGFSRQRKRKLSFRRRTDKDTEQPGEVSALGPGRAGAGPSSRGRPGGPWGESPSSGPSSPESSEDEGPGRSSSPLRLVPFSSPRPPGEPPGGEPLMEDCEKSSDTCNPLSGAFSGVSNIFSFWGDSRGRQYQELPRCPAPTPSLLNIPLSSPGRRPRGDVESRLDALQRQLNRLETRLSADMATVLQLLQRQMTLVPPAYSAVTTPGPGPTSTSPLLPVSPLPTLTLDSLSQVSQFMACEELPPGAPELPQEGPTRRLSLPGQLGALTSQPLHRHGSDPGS
# Assay: Displacement of [3H]dofetilide from hERG
# Conditions: not given
row,SMILES,IC50
1,CCOc1nc(C(=O)NCc2ccc(S(C)(=O)=O)cc2)cc(N)c1C#N,> 100000 nM

# Target: Mitogen-activated protein kinase 10 (Homo sapiens, UniProt P53779)
# Sequence (P53779 whole entry): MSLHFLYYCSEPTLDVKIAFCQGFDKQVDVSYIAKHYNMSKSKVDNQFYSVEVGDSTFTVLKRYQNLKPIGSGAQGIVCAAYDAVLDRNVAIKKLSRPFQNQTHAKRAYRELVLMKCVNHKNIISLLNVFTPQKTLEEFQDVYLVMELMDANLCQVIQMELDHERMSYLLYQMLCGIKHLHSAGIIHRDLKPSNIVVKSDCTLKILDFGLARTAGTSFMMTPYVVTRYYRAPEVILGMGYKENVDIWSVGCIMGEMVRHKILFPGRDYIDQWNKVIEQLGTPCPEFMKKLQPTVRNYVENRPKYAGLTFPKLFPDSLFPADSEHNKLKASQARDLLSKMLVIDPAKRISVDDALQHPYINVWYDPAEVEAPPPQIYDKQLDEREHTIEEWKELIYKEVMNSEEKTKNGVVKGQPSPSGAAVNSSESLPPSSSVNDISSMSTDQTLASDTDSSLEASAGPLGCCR
# Assay: Inhibition of JNK3
# Conditions: not given
row,IC50,SMILES
1,120 nM,CCOc1nc(C(=O)NCc2ccc(S(C)(=O)=O)cc2)cc(N)c1Cl

# Target: not listed separately
# Assay: Inhibition of IGFR
# Set-up: species or system Homo sapiens
# Conditions: not given
row,Ki,SMILES
1,> 1000 nM,CCOc1nc(C(=O)NCc2ccc(S(C)(=O)=O)cc2)cc(N)c1Cl

# System: not listed separately
# Assay: Half life in rat at 5 mg/kg, po
# Type: ADME, organism-based
# Set-up: dose 5 mg/kg, route oral
# Conditions: in vivo
row,half-life,SMILES
1,0.5 h,CCOc1nc(C(=O)NCc2cccnc2)cc(N)c1C#N
2,5.1 h,CCOc1nc(C(=O)NCc2ccc(S(C)(=O)=O)cc2)cc(N)c1Cl
3,2.2 h,CCOc1nc(C(=O)NCc2ccccc2S(N)(=O)=O)cc(N)c1C#N
4,3.4 h,CCOc1nc(C(=O)NCc2ccc(S(C)(=O)=O)cc2)cc(N)c1C#N

# System: not listed separately
# Assay: Cmax in rat at 5 mg/kg, po
# Type: ADME, organism-based
# Set-up: dose 5 mg/kg, route oral
# Conditions: in vivo
row,Cmax,SMILES
1,2920 ng/mL,CCOc1nc(C(=O)NCc2cccnc2)cc(N)c1C#N
2,1780 ng/mL,CCOc1nc(C(=O)NCc2ccc(S(C)(=O)=O)cc2)cc(N)c1Cl
3,1320 ng/mL,CCOc1nc(C(=O)NCc2ccccc2S(N)(=O)=O)cc(N)c1C#N
4,1020 ng/mL,CCOc1nc(C(=O)NCc2ccc(S(C)(=O)=O)cc2)cc(N)c1C#N

# System: not listed separately
# Assay: Half life in human microsomes
# Type: ADME, Microsome
# Conditions: liver microsomes
row,half-life,SMILES
1,> 1 h,CCOc1nc(C(=O)NCc2ccc(S(C)(=O)=O)cc2)cc(N)c1C#N

# Target: Mitogen-activated protein kinase 9 (Homo sapiens, UniProt P45984)
# Sequence (P45984 whole entry): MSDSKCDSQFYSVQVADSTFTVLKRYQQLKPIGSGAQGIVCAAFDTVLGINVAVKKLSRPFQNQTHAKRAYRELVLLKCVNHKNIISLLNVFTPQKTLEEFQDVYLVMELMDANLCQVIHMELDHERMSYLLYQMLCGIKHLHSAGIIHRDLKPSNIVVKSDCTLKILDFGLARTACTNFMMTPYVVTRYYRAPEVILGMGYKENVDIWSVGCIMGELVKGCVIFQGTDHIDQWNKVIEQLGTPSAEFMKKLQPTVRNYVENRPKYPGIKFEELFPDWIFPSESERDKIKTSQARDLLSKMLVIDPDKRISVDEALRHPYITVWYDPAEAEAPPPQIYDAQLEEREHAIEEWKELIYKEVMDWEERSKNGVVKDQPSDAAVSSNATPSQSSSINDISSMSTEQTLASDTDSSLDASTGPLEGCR
# Assay: Inhibition of JNK2
# Conditions: not given
row,SMILES,IC50
1,CS(=O)(=O)c1ccc(CNC(=O)c2cc(N)c(C#N)c(Cl)n2)cc1,4400 nM
2,CCOc1nc(C(=O)NC)cc(N)c1C#N,610 nM
3,CCOc1nc(C(=O)N(C)Cc2ccc(S(C)(=O)=O)cc2)cc(N)c1C#N,> 10000 nM

# Further lines, results first:
row,IC50,SMILES
1,190 nM,CCOc1nc(C(=O)NCc2ccccc2)cc(N)c1C#N
2,68 nM,CC(C)Oc1nc(C(=O)NCc2ccc(S(C)(=O)=O)cc2)cc(N)c1Cl
3,120 nM,CCOc1nc(C(=O)NCc2cc(OC)ccc2OC)cc(N)c1C#N
4,11 nM,CCOc1nc(C(=O)NCc2ccc(-c3ccc(C(=O)O)cc3)nc2)cc(N)c1C#N
